Measurements taken from ChEMBL document CHEMBL4118189, “Discovery of novel N-hydroxy-2-arylisoindoline-4-carboxamides as potent and selective inhibitors of HDAC11” (Bioorg Med Chem Lett, 2018).

What was measured:
Histone deacetylase 11 [1] = target: T1, Histone deacetylase 11 (Homo sapiens, UniProt Q96DB2); assay: Inhibition of NanoLuc-tagged HDAC11 (unknown origin) by BRET assay
T1 sequence (Q96DB2 whole entry): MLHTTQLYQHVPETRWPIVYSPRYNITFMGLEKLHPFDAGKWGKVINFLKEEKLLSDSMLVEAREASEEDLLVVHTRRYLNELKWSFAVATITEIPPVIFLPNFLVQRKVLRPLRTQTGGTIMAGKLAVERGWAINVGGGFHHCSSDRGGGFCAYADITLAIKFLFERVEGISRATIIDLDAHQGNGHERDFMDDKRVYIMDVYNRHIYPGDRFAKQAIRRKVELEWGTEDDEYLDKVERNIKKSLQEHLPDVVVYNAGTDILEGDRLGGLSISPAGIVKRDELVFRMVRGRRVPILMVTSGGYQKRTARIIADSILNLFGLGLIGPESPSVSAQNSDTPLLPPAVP

Histone deacetylase 7 = target: T2, Histone deacetylase 7 (Homo sapiens, UniProt Q8WUI4); assay: Inhibition of full length recombinant human HDAC7 using fluorescent-labeled peptide as substrate by electrophoretic mobility shift assay
T2 sequence (Q8WUI4 whole entry): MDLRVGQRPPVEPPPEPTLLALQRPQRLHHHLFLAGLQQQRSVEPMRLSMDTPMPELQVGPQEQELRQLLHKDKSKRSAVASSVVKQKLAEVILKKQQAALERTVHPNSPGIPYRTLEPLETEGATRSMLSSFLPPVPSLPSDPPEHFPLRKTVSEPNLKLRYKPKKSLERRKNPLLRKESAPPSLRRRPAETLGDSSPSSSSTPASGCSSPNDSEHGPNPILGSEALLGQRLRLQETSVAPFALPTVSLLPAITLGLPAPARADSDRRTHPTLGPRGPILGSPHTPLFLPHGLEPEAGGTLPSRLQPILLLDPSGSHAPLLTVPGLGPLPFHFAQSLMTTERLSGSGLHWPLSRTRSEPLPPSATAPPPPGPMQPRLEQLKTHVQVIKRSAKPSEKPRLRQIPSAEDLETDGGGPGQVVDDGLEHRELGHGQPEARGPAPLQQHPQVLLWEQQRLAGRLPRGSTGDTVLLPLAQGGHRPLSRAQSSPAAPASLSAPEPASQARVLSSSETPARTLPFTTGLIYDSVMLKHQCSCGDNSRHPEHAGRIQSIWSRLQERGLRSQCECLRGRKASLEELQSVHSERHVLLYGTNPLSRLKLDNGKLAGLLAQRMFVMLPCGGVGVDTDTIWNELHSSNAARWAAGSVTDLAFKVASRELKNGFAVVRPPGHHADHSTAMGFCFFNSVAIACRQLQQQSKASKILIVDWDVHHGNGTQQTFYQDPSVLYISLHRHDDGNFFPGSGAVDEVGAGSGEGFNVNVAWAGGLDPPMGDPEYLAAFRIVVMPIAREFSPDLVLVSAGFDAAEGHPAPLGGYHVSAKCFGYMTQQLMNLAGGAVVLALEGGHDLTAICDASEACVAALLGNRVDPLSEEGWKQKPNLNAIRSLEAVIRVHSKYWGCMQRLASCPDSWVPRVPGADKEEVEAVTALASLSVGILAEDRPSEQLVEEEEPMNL

Histone deacetylase 9 = Histone deacetylase 9 (Homo sapiens, UniProt Q9UKV0); assay: Inhibition of full length recombinant human HDAC9 using fluorescent-labeled peptide as substrate by electrophoretic mobility shift assay
Histone deacetylase 11 [2] = target: T1, Histone deacetylase 11; assay: Inhibition of full length recombinant human HDAC11 expressed in baculoviral expression system using FAM-RHKK as substrate by electrophoretic mobility shift assay

Sequence of Histone deacetylase 9 (Q9UKV0 whole entry): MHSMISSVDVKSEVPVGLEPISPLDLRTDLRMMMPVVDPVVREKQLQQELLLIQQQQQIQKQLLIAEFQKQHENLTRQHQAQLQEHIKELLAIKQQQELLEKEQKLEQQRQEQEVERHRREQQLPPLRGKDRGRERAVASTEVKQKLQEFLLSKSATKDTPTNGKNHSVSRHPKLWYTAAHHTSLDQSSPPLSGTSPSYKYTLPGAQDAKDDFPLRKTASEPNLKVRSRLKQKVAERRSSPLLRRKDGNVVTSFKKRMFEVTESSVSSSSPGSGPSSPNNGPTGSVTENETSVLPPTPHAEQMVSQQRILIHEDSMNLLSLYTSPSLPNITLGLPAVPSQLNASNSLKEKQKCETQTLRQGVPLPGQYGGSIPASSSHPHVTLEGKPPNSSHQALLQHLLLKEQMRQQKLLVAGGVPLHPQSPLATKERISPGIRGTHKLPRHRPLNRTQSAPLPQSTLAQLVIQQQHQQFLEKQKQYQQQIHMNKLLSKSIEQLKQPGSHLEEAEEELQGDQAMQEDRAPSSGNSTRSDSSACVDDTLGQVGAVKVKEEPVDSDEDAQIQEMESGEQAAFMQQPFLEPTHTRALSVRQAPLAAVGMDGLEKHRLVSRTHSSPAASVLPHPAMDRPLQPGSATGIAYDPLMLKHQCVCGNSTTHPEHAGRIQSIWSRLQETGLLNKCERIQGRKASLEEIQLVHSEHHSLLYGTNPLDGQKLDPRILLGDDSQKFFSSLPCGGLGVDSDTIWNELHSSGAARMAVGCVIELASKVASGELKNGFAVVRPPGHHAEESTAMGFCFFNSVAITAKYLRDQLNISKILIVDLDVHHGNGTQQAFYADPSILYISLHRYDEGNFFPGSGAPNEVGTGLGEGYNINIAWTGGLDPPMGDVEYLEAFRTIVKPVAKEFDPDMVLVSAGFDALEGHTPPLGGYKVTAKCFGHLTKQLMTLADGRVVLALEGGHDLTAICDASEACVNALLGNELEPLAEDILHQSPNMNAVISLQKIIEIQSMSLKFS

Molecule CC1(C)c2cccc(C(N)=O)c2CN1c1cnc(C(F)(F)F)cn1 has an IC50 (Histone deacetylase 11 [1]) greater than 25 µM, an IC50 (Histone deacetylase 7) greater than 10 µM and an IC50 (Histone deacetylase 9) greater than 10 µM. The IC50 (Histone deacetylase 11 [2]) was greater than 10 µM.
